Laboratory results reported in patent publication US12324568B2, “Mouthwash to deliver dyes for dental imaging” (BOARD OF SUPERVISORS OF LOUISIANA STATE UNIVERSITY AND …, priority 2020, dated 2025).
Where two headings read alike, the source gives them in different places.

Tests used:
rat molars = assay: ICG-assisted NIR dental imaging with in vivo mouthwash in living rats; set-up: species or system Sprague Dawley rats; details: rat model
Method: Self-breed Sprague Dawley rats, including eight postnatal day 31 (P31) and two P21 rats for erupted molars and sixteen P14 rats for unerupted molars, were utilized. To simulate the mouthwash with living rats, 10 μL ICG solution (1 mg/ml) was pipetted into the mouth of two P31 rats in vivo, and the rats were euthanized after 2 minutes. The other two P21 went through the same in vivo mouthwash procedure and euthanized after 1 minute. In addition, the mandibles were dissected from another two P31 rats directly after euthanasia, then washed with 10 μL ICG (1 mg/ml) solution ex vivo for 10 minutes. For the subcutaneous injection, every two P31 rats were euthanized at each time points 10 minutes and 24 hours, for the ICG injection on the back (5 mg/kg body weight). For the unerupted molars, two rats were sacrificed 1 minute after in vivo mouthwash, and the same for the erupted molars. […]
The imaging system is depicted in FIG. 1(A). A 785 nm laser source shined to the mandibles with fiber and filters, a NIR camera received the videos, and videos were recorded by computer. […]
Meanwhile, endoscopic imaging provided clearer morphologies of the first and second molars than wide-field imaging. […] As described in previous work,^29, 30 the intensity-mean difference Dmean_diff (IMD) was used as the image contrast for the quantitative evaluation of the target and background. […]

[1] = test system: rat molars (erupted P31, unerupted P14); details: rat model, previous work, cited from earlier work
[2] = test system: rat molars (erupted P31, unerupted P14); assay: ICG-assisted NIR dental imaging after subcutaneous injection in rat model; assay type: in vivo, Sprague Dawley rats
Method: Self-breed Sprague Dawley rats, including eight postnatal day 31 (P31) and two P21 rats for erupted molars and sixteen P14 rats for unerupted molars, were utilized. To simulate the mouthwash with living rats, 10 μL ICG solution (1 mg/ml) was pipetted into the mouth of two P31 rats in vivo, and the rats were euthanized after 2 minutes. The other two P21 went through the same in vivo mouthwash procedure and euthanized after 1 minute. In addition, the mandibles were dissected from another two P31 rats directly after euthanasia, then washed with 10 μL ICG (1 mg/ml) solution ex vivo for 10 minutes. For the subcutaneous injection, every two P31 rats were euthanized at each time points 10 minutes and 24 hours, for the ICG injection on the back (5 mg/kg body weight). For the unerupted molars, two rats were sacrificed 1 minute after in vivo mouthwash, and the same for the erupted molars. To study concentration effect on imaging, 0.1, 0.5, 1, and 5 mg/kg of ICG were injected into eight P14 rats (two rats for each dosage, and euthanized for each concentration 4 hours after injection). For P14 rats to study imaging windows, two rats were euthanized at 10 minutes, 4 hours and 48 hours for posting ICG injection (5 mg/kg) respectively.
The imaging system is depicted in FIG. 1(A). A 785 nm laser source shined to the mandibles with fiber and filters, a NIR camera received the videos, and videos were recorded by computer. The mandibles were then extracted and imaged using ICG-assisted endoscopic NIR dental imaging, as described in previous publications.^29-31 In the endoscopic imaging, an output fiber was connected to the endoscope with a camera.^30 All experiments were approved by the Institutional Animal Care and Use Committee (IACUC) of Louisiana State University (Protocol #16-117) and followed the ethical guidelines of animal care.
Meanwhile, endoscopic imaging provided clearer morphologies of the first and second molars than wide-field imaging. The lingual and occlusal cusps of the molars could be easily distinguished, especially for the mouthwash treatment (FIG. 1(B)). As described in previous work,^29, 30 the intensity-mean difference Dmean_diff (IMD) was used as the image contrast for the quantitative evaluation of the target and background. To further reveal the efficiency of the mouthwash and local injection, a sampling line (yellow lines in FIG. 1) covering both molar regions and the surrounding tissues was used to calculate the image contrast of the molar and surrounding tissues.

CC1(C)C(/C=C/C=C/C=C/C=C2\N(CCCCS(=O)(=O)O)c3ccc4ccccc4c3C2(C)C)=[N+](CCCCS(=O)(=O)[O-])c2ccc3ccccc3c21 [ICG, indocyanine green]
time to achieve the same image contrast (rat molars): 1 to 2 min | imaging window ([1]; erupted molars): 4 h | imaging window ([1]; unerupted molar): about 96 hours | visibility of dental structures ([2]; erupted molars (P31 rat), 24 hours after ICG injection): no dental structures could be observed | visibility of dental structures ([2]; erupted molars (P31 rat), subcutaneous injection, imaging window 10 minutes): clearly observable | minimal dye dosage to achieve recognizable anatomical imaging ([2]; subcutaneous injection, P14 rats (FIG. 9)): 0.1 mg/kg (body weight) | visibility of dental structures ([2]; unerupted molars (P14 rats), imaging window 48 hours): could still be observed
